# Where two headings read alike, the source gives them in different places.
# Key:
# Assay in all cases: Test C pre/postemergence
# Format in all cases: in vivo
# [1] = tested on: morningglory (Ipomoea coccinea); settings: Ipomoea, pre-emergence, Preemergence, read-out: Plant response rating, Morningglory
# Procedure, shortened: (§1)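 Rating scale 0–100: 0 means no effect, 100 complete control; taken visually 12 to 14 days post-treatment versus controls. Pre- and postemergence greenhouse applications, postemergence at 1- to 4-leaf stage, non-phytotoxic solvent with surfactant as carrier.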
# [2] = tested on: corn (Zea mays); settings: Zea mays; for Corn plant response rating (crop injury, 0 = no effect, 100 = complete kill) at 16 g/ha: 16 g ai/ha; for Corn plant response rating (crop injury, 0 = no effect, 100 = complete kill) at 31 g/ha: 31 g ai/ha; for Corn plant response rating (crop injury, 0 = no effect, 100 = complete kill) at 62 g/ha: 62 g ai/ha; for Corn plant response rating (crop injury, 0 = no effect, 100 = complete kill) at 125 g/ha: 125 g ai/ha
# Procedure, shortened: as §1
# [3] = tested on: woolly cupgrass (Eriochloa villosa); settings: Eriochloa villosa; for pest or weed control at 16 g/ha: 16 g ai/ha; for pest or weed control at 31 g/ha: 31 g ai/ha; for pest or weed control at 62 g/ha: 62 g ai/ha; for pest or weed control at 125 g/ha: 125 g ai/ha
# Procedure, shortened: as §1
# [4] = tested on: eastern black nightshade (Solanum ptycanthum); settings: Solanum, pre-emergence, Preemergence, read-out: Plant response rating, Nightshade
# Procedure, shortened: as §1
# [5] = tested on: common (oilseed) sunflower (Helianthus annuus); settings: Helianthus annuus, pre-emergence, Preemergence, read-out: Plant response rating, Sunflower
# Procedure, shortened: as §1
# [6] = tested on: common ragweed (Ambrosia elatior); settings: Ambrosia artemisiifolia; for pest or weed control at 16 g/ha: 16 g ai/ha; for pest or weed control at 31 g/ha: 31 g ai/ha; for pest or weed control at 62 g/ha: 62 g ai/ha; for pest or weed control at 125 g/ha: 125 g ai/ha
# Procedure, shortened: as §1
# [7] = tested on: cocklebur (Xanthium strumarium); settings: Xanthium strumarium; for pest or weed control at 16 g/ha: 16 g ai/ha; for pest or weed control at 31 g/ha: 31 g ai/ha; for pest or weed control at 62 g/ha: 62 g ai/ha; for pest or weed control at 125 g/ha: 125 g ai/ha
# Procedure, shortened: as §1
# [8] = 16 g ai/ha, scale 0 to 100, 0 no effect, 100 complete control
# [9] = 31 g ai/ha, scale 0 to 100, 0 no effect, 100 complete control
# [10] = 62 g ai/ha, scale 0 to 100, 0 no effect, 100 complete control
# [11] = post-emergence, Postemergence, read-out: Plant response rating (scale of 0 to 100), Corn
# [12] = post-emergence, Postemergence, scale 0 to 100 (0 no effect, 100 complete control), read-out: Corn plant response rating
# [13] = pre-emergence, Preemergence, scale 0 to 100, 0 no effect, 100 complete control, read-out: Plant response rating, Corn
# [14] = post-emergence, Postemergence, read-out: Plant response rating (scale of 0 to 100), Cupgrass, Woolly
# [15] = post-emergence, Postemergence, scale 0 to 100 (0 no effect, 100 complete control), read-out: Cupgrass, Woolly plant response rating
# [16] = pre-emergence, Preemergence, scale 0 to 100, 0 no effect, 100 complete control, read-out: Plant response rating, Cupgrass, Woolly
# [17] = post-emergence, Postemergence, read-out: Plant response rating (scale of 0 to 100), Ragweed
# [18] = post-emergence, Postemergence, scale 0 to 100 (0 no effect, 100 complete control), read-out: Ragweed plant response rating
# [19] = pre-emergence, Preemergence, scale 0 to 100, 0 no effect, 100 complete control, read-out: Plant response rating, Ragweed
# [20] = post-emergence, Postemergence, read-out: Plant response rating (scale of 0 to 100), Cocklebur
# [21] = post-emergence, Postemergence, scale 0 to 100 (0 no effect, 100 complete control), read-out: Cocklebur plant response rating
# [22] = pre-emergence, Preemergence, scale 0 to 100, 0 no effect, 100 complete control, read-out: Plant response rating, Cocklebur
smiles,measurement,setting,value
COC(=O)c1nc(C2CC2)nc(N)c1F [Compound 25],pest or weed control at 16 g/ha,[1]; [8],0%
same,pest or weed control at 31 g/ha,[1]; [9],0%
same,pest or weed control at 62 g/ha,[1]; [10],50%
same,pest or weed control at 125 g/ha,"[1]; 125 g ai/ha, scale 0 to 100",90%
same,"Corn plant response rating (crop injury, 0 = no effect, 100 = complete kill) at 16 g/ha",[2]; [11],0%
same,"Corn plant response rating (crop injury, 0 = no effect, 100 = complete kill) at 31 g/ha",[2]; [11],0%
same,"Corn plant response rating (crop injury, 0 = no effect, 100 = complete kill) at 62 g/ha",[2]; [12],0%
same,"Corn plant response rating (crop injury, 0 = no effect, 100 = complete kill) at 125 g/ha",[2]; [12],0%
same,"Corn plant response rating (crop injury, 0 = no effect, 100 = complete kill) at 16 g/ha",[2]; [13],0%
same,"Corn plant response rating (crop injury, 0 = no effect, 100 = complete kill) at 31 g/ha",[2]; [13],0%
same,"Corn plant response rating (crop injury, 0 = no effect, 100 = complete kill) at 62 g/ha",[2]; [13],0%
same,"Corn plant response rating (crop injury, 0 = no effect, 100 = complete kill) at 125 g/ha","[2]; pre-emergence, Preemergence, scale 0 to 100, read-out: Plant response rating, Corn",0%
same,pest or weed control at 16 g/ha,[3]; [14],0%
same,pest or weed control at 31 g/ha,[3]; [14],0%
same,pest or weed control at 62 g/ha,[3]; [15],0%
same,pest or weed control at 125 g/ha,[3]; [15],30%
same,pest or weed control at 16 g/ha,[3]; [16],0%
same,pest or weed control at 31 g/ha,[3]; [16],0%
same,pest or weed control at 62 g/ha,[3]; [16],0%
same,pest or weed control at 125 g/ha,"[3]; pre-emergence, Preemergence, scale 0 to 100, read-out: Plant response rating, Cupgrass, Woolly",50%
same,pest or weed control at 16 g/ha,[4]; [8],0%
same,pest or weed control at 31 g/ha,[4]; [9],0%
same,pest or weed control at 62 g/ha,[4]; [10],30%
same,pest or weed control at 125 g/ha,"[4]; 125 g ai/ha, scale 0 to 100",75%
same,pest or weed control at 16 g/ha,[5]; [8],5%
same,pest or weed control at 31 g/ha,[5]; [9],60%
same,pest or weed control at 62 g/ha,[5]; [10],75%
same,pest or weed control at 125 g/ha,"[5]; 125 g ai/ha, scale 0 to 100",90%
same,pest or weed control at 16 g/ha,[6]; [17],40%
same,pest or weed control at 31 g/ha,[6]; [17],50%
same,pest or weed control at 62 g/ha,[6]; [18],65%
same,pest or weed control at 125 g/ha,[6]; [18],70%
same,pest or weed control at 16 g/ha,[6]; [19],0%
same,pest or weed control at 31 g/ha,[6]; [19],70%
same,pest or weed control at 62 g/ha,[6]; [19],70%
same,pest or weed control at 125 g/ha,"[6]; pre-emergence, Preemergence, scale 0 to 100, read-out: Plant response rating, Ragweed",85%
same,pest or weed control at 16 g/ha,[7]; [20],70%
same,pest or weed control at 31 g/ha,[7]; [20],85%
same,pest or weed control at 62 g/ha,[7]; [21],90%
same,pest or weed control at 125 g/ha,[7]; [21],90%
same,pest or weed control at 16 g/ha,[7]; [22],0%
same,pest or weed control at 31 g/ha,[7]; [22],20%
same,pest or weed control at 62 g/ha,[7]; [22],60%
same,pest or weed control at 125 g/ha,"[7]; pre-emergence, Preemergence, scale 0 to 100, read-out: Plant response rating, Cocklebur",85%

# Reference: patent publication US8802597B2, “Herbicidal pyrimidines” (E I du Pont de Nemours and Company, priority 2003, dated 2014)
